From patent publication US12419896B2, “Compositions and dosage forms for oral delivery” (RHODES TECHNOLOGIES, priority 2018, dated 2025)

Tests used:
[1] = versus Δ^9-THC; oxidation to cannabinol, shelf life; cited from earlier work
[2] = most pharmacological tests; Ophthalmic Res. (1992) 24:142-149; cited from earlier work
[3] = Miscibility of sesame oil in 40% IPA/HFA 134a; format: physicochemical; conditions: based on 10% w/v dronabinol in sesame oil
Procedure: In some embodiments, formulations deliver between 0.25 mg and 2 mg dose of dronabinol after application. Table 4 details the % w/w dronabinol required in the canister to achieve such doses for different actuator volumes available ([…]). The miscibility of sesame oil in 40% IPA/HFA 134a has been determined to be 7.2% w/w, equivalent to 0.8% dronabinol, based on 10% w/v dronabinol in sesame oil. Therefore, the dose of dronabinol (mg) produced from each of the difference actuator volumes based on a level of 0.8% w/w dronabinol in canisters has been presented in Table 5.

[4] = cited from earlier work

| Compound | Stability compared with Δ^9-THC [1] | Potency compared with Δ^9-THC [2] | Level of dronabinol equivalent to the sesame oil miscibility limit [3] [%] | Solubility in water [4] |
| --- | --- | --- | --- | --- |
| CCCCCc1cc(O)c2c(c1)OC(C)(C)[C@@H]1CC=C(C)C[C@@H]21 (relative stereo) [Δ^8-THC, (−)-trans-Δ^8-tetrahydrocannabinol] | more stable | less potent |  |  |
| CCCCCc1cc(O)c2c(c1)OC(C)(C)C1CCC(C)=CC21 (single isomer, unassigned; (-)) [dronabinol, (−)-trans-Δ^9-tetrahydrocannabinol] |  |  | 0.8 | insoluble |
